In the experiment the target is T1, cPLA2 (Homo sapiens, UniProt P47712).
T1 sequence (P47712 1-749): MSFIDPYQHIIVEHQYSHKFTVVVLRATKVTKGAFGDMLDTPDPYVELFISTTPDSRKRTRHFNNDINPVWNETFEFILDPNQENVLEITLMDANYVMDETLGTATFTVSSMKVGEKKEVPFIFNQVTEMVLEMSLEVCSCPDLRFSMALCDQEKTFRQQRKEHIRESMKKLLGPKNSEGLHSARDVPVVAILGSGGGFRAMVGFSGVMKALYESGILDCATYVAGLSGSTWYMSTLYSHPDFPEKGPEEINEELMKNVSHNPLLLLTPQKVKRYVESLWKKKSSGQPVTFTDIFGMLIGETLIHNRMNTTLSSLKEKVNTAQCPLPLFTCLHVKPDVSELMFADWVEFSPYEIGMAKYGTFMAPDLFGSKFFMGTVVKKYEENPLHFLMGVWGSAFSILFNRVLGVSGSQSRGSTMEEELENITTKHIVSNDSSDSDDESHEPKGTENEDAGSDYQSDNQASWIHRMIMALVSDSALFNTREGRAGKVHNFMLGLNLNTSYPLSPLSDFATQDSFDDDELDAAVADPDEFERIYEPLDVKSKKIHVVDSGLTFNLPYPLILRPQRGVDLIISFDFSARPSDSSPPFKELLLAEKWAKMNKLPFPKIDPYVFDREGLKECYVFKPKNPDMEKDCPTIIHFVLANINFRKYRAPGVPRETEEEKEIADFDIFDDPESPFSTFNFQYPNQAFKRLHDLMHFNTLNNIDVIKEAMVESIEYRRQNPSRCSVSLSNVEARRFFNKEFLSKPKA
Briefly: Coumarin Assay (cPLA2 inhibition). Format: biochemical. Particulars: for inhibition at 100 µM: CONCENTRATION 100 micromolar. The method, then:
Table I reports data for the compounds described in the examples above in cPLA2 inhibition assays (described below). In the data columns of Tables I and II, assay results are reported as a percent inhibition at the concentration specified.
7-hydroxycoumarinyl 6-heptenoate was used as a monomeric substrate for cPLA2 as reported previously (Huang, Z. et al., 1994, Nalytical Biochemistry 222, 110-115). Inhibitors were mixed with 200 μL assay buffer (80 mM Heped, pH 7.5, 1 mM EDTA) containing 60 μM 7-hydroxycoumarinyl 6-heptenoate. The reaction was initiated by adding 4 μg cPLA2 in 50 μL assay buffer. Hydrolysis of the 7-hydroxycounarimyl 6-heptenoate ester was monitored in a fluorometer by exciting at 360 nm and monitoring emission at 460 nm. Enzyme activity is proportional to the increase in emission at 460 nm per minute. In the presence of a cPLA2 inhibitor, the rate of increase is less. The percent inhibition for corresponding concentrations of compounds herein in this Coumarin assay are provided below in Table I.

The mark [1] stands for this setting: CONCENTRATION 50 micromolar, read-out: PERCENT INHIBITION @.

As to `COc1cc(C(=O)NS(=O)(=O)c2ccccc2C)ccc1Cc1cn(Cc2ccncc2)c2ccc(NC(=O)OC3CCCC3)cc12` [Example 22, Cyclopentyl N-[3-[2-methoxy-4-({[(2-methylphenyl)sulfonyl]amino}carbonyl)benzyl]-1-(4-pyridinylmethyl)-1H-indol-5-yl]carbamate], for the setting “CONCENTRATION 38 micromolar, read-out: PERCENT INHIBITION @”, the inhibition at 38 µM amounted to 50%. Also, the inhibition at 40 µM (CONCENTRATION 40 micromolar, read-out: PERCENT INHIBITION @) was 50%.

Turning to `COc1cc(C(=O)NS(=O)(=O)c2ccccc2C)ccc1Cc1cn(C(c2ccccc2)c2ccccc2)c2ccc([N+](=O)[O-])cc12` [Example 36, N-{4-[(1-benzhydryl-5-nitro-1H-indol-3-yl)methyl]-3-methoxybenzoyl}-2-methylbenzenesulfonamide], the inhibition at 0.22 µM (CONCENTRATION 0.22 micromolar, read-out: PERCENT INHIBITION @) stood at 50%. For the same compound, under “CONCENTRATION 0.25 micromolar, read-out: PERCENT INHIBITION @”, the inhibition at 0.25 µM came to 60%. The inhibition at 0.32 µM (CONCENTRATION 0.32 micromolar, read-out: PERCENT INHIBITION @) came to 50%. The inhibition at 0.45 µM (CONCENTRATION 0.45 micromolar, read-out: PERCENT INHIBITION @) was determined as 50%.

As for `COc1cc(C(=O)O)ccc1Cc1cn(C(c2ccccc2)c2ccccc2)c2ccc(S(C)(=O)=O)cc12` [Example 18, 4-{[l-benzhydryl-5-(methylsulfonyl)-1H-indol-3-yl]methyl}-3-methoxybenzoic acid], the “PERCENT INHIBITION @” value runs as follows: (CONCENTRATION 1.2 micromolar) 50%; (CONCENTRATION 1.3 micromolar) 50%; (CONCENTRATION 1.9 micromolar) 50%; (CONCENTRATION 2 micromolar) 50%.

In the case of `O=C(O)Cc1cn(Cc2ccccc2)c2ccc(-c3ccccc3)cc12` [Example 81, 2-(1-benzyl-5-phenyl-1H-indol-3-yl)acetic acid], the inhibition at 70 µM (CONCENTRATION 70 micromolar, read-out: PERCENT INHIBITION @) amounted to 50%. In addition, the inhibition at 100 µM (read-out: PERCENT INHIBITION @) was found to be 46%.

In the case of `O=C(Nc1cc(C(=O)O)cc(C(=O)O)c1)C(=O)c1cn(Cc2ccc(C(F)(F)F)cc2C(F)(F)F)c2ccc(OCc3ccccc3)cc12` [Example 72, 5-[(2-{5-(benzyloxy)-1-[2,4-bis(trifluoromethyl)benzyl]-1H-indol-3-yl}-2-oxoacetyl)amino]isophthalic acid], the inhibition at 12.5 µM (CONCENTRATION 12.5 micromolar, read-out: PERCENT INHIBITION @) amounted to 50%.

Consider `O=C(O)c1ccc(OCCc2c(COCc3ccncc3)n(C(c3ccccc3)c3ccccc3)c3ccc(Cl)cc23)cc1` [Example 159, 4-(2-{1-benzhydryl-5-chloro-2-[(4-pyridinylmethoxy)methyl]-1H-indol-3-yl}ethoxy)benzoic acid], for which the inhibition at 4.2 µM (Conc 4.2 uM, read-out: % Inhibition) was 50%.

For the compound `Cc1c(CCOc2ccc(C(=O)O)cc2)c2cc(Cl)ccc2n1C(c1ccccc1)c1ccccc1` [Example 149, 4-[2-(1-benzhydryl-5-chloro-2-methyl-1H-indol-3-yl)ethoxy]benzoic acid], the inhibition at 2.5 µM (Conc 2.5 uM, read-out: % Inhibition) amounted to 50%.

`O=C(O)c1ccc(Cc2cn(C(c3ccccc3)c3ccccc3)c3cc(Cl)ccc23)c(OCCCO)c1` [Example 131, ′4-[(1-benzhydryl-6-chloro-1H-indol-3-yl)methyl]-3-(3-hydroxypropoxy)benzoic acid]: the “PERCENT INHIBITION @” value (CONCENTRATION 0.6 micromolar) is 50%.

Regarding `COc1cc(C(=O)O)ccc1Cc1cn(C(c2ccccc2)c2ccccc2N2CCOCC2)c2cc(Cl)ccc12` (centres unmarked) [Example 135, ′4-({6-chloro-1-[(2-morpholinophenyl)(phenyl)methyl]-1H-indol-3-yl}methyl)-3-methoxybenzoic acid], the “PERCENT INHIBITION @” value (CONCENTRATION 0.7 micromolar) stood at 50%.

Consider `COc1cc(C(=O)O)ccc1Cc1cn(Cc2ccncc2)c2ccc(NC(=O)OC3CCCC3)cc12` [Example 6, 4-{[5-{[(cyclopentyloxy)carbonyl]amino}-1-(4-pyridinylmethyl)-1H-indol-3-yl]methyl}-3-methoxybenzoic acid], for which the inhibition at 100 µM (read-out: PERCENT INHIBITION @) came to 11%. Besides, where the note is “CONCENTRATION 200 micromolar, read-out: PERCENT INHIBITION @”, the inhibition at 200 µM was found to be 50%.

Turning to `O=C(O)CCc1ccc(S(=O)(=O)CCc2c(CO)n(C(c3ccccc3)c3ccccc3)c3ccc(Cl)cc23)cc1` [Example 168, 3-[4-({2-[1-benzhydryl-5-chloro-2-(hydroxymethyl)-1H-indol-3-yl]ethyl}sulfonyl)phenyl]propanoic acid], where the note is “Conc 2.4 uM, read-out: % Inhibition”, the inhibition at 2.4 µM came to 50%.

On to `O=C(Nc1cccc(C(=O)O)c1)C(=O)c1cn(Cc2ccc(Cc3ccccc3)cc2)c2ccc(OCc3ccccc3)cc12` [Example 71, 3-({2-[1-(4-benzylbenzyl)-5-(benzyloxy)-1H-indol-3-yl]-2-oxoacetyl}amino)benzoic acid], for which the inhibition at 1.5 µM (CONCENTRATION 1.5 micromolar, read-out: PERCENT INHIBITION @) was found to be 50%. In addition, the inhibition at 3.5 µM (CONCENTRATION 3.5 micromolar, read-out: PERCENT INHIBITION @) was 50%. Also, the inhibition at 3.8 µM (CONCENTRATION 3.8 micromolar, read-out: PERCENT INHIBITION @) amounted to 50%. The inhibition at 6 µM (CONCENTRATION 6 micromolar, read-out: PERCENT INHIBITION @) was 69%.

`COc1cc(OCC(=O)O)ccc1Cc1cn(C(c2ccccc2)c2ccccc2)c2cc(Cl)ccc12` [Example 118, 2-{4-[(1-benzhydryl-6-chloro-1H-indol-3-yl)methyl]-3-methoxyphenoxy}acetic acid]: under “CONCENTRATION 0.6 micromolar, read-out: PERCENT INHIBITION @”, the inhibition at 0.6 µM was 50%.

Regarding `COc1cc(C(=O)NS(=O)(=O)Cc2ccccc2)ccc1Cc1cn(C(c2ccccc2)c2ccccc2)c2ccc(NC(=O)OC3CCCC3)cc12` [Example 31, cyclopentyl N-[1-benzhydryl-3-(4-{[(benzylsulfonyl)amino]carbonyl}-2-methoxybenzyl)-1H-indol-5-yl]carbamate], the inhibition at 11 µM (CONCENTRATION 11 micromolar, read-out: PERCENT INHIBITION @) was determined as 50%. For the same compound, where the note is “CONCENTRATION 18 micromolar, read-out: PERCENT INHIBITION @”, the inhibition at 18 µM was determined as 50%.

Turning to `O=C(O)C(=O)c1cn(Cc2ccc(C(F)(F)F)cc2C(F)(F)F)c2ccc(OCc3ccccc3)cc12` [Example 70, 2-{5-(benzyloxy)-1-[2,4-bis(trifluoromethyl)benzyl]-1H-indol3-yl}-2-oxoacetic acid], the “PERCENT INHIBITION @” value (CONCENTRATION 50 micromolar) was 40%. For the same compound, the inhibition at 50 µM under setting [1] is 39%.

For `CCCn1cc(Cc2ccc(C(=O)NS(=O)(=O)c3ccccc3C)cc2OC)c2cc(NC(=O)OC3CCCC3)ccc21` [Example 20, Cyclopentyl N-{3-[2-methoxy-4-({[(2-methylphenyl)sulfonyl]amino}carbonyl)benzyl]-1-propyl-1H-indol-5-yl}carbamate], the inhibition at 25 µM (CONCENTRATION 25 micromolar, read-out: PERCENT INHIBITION @) came out at 50%. For the same compound, the inhibition at 32 µM (CONCENTRATION 32 micromolar, read-out: PERCENT INHIBITION @) stood at 50%.

As for `Cc1c(C(=O)Nc2cc(C(=O)O)cc(C(=O)O)c2)c2cc(OCc3ccccc3)ccc2n1Cc1ccc(C(F)(F)F)cc1C(F)(F)F` [Example 108, 5-[({5-(benzyloxy)-1-[2,4-bis(trifluoromethyl)benzyl]-2-methyl-1H-indol-3-yl}carbonyl)amino]isophthalic acid], under “CONCENTRATION 6.25 micromolar, read-out: PERCENT INHIBITION @”, the inhibition at 6.25 µM turned out to be 67%. Besides, the inhibition at 20 µM (CONCENTRATION 20 micromolar, read-out: PERCENT INHIBITION @) was found to be 15%. The inhibition at 48 µM (CONCENTRATION 48 micromolar, read-out: PERCENT INHIBITION @) turned out to be 50%. Moreover, under setting [1], the inhibition at 50 µM amounted to 46%.

In general, inhibition refers to the percentage by which the read-out fell short of the control.

The values above are taken from patent publication US6500853B1, “Inhibitors of phospholipase enzymes” (Genetics Institute, LLC, priority 1998, dated 2002).
